These results are taken from ChEMBL document CHEMBL1129823, “Cytotoxicity and actin depolymerizing activity of aplyronine A, a potent antitumor macrolide of marine origin, and the natural and artificial analogs” (Bioorg Med Chem Lett, 1997).

Test [1] deals with HeLa. The experiment in a line: Evaluated for the cytotoxicity against HeLa S3 cells. The settings on record: Homo sapiens. Type of test: functional, cell-based.
Test [2] concerns HeLa. Kind of test: Relative potency was calculated from the cytotoxicity against HeLa S3 cells (aplyronine A = 100). In kind it is functional, Homo sapiens.
For test [3], the species on record is Oryctolagus cuniculus. The experiment in a line: Relative potency was calculated from the Actin depolymerizing activity (aplyronine A = 100). In kind it is functional.
Test [4] is described as follows: F-Actin (40 uM) depolymerizing activity which was monitored by measuring flow birefringence. Type of test: functional, Oryctolagus cuniculus.
Test [5] can be described thus: Compound was evaluated for the F-Actin (40 uM) depolymerizing activity* which was monitored by measuring flow birefringence (Actin was extracted in cold water from the acetone-dried powder of rabbit skeletal muscle). In kind it is functional, tissue-based, Oryctolagus cuniculus, Muscle tissue.
The nature of test [6]: Compound was evaluated for the F-Actin (40 uM) depolymerizing activity which was monitored by measuring flow birefringence (Actin was extracted in cold water from the acetone-dried powder of rabbit skeletal muscle); Inactive. In kind it is functional, tissue-based, Oryctolagus cuniculus, Muscle tissue.
For test [7], the species on record is Oryctolagus cuniculus. The experiment in a line: Relative potency was calculated from the Actin depolymerizing activity (aplyronine A = 100); Inactive. In kind it is functional.
Test [8] in a line: Compound was evaluated for the F-Actin (40 uM) depolymerizing activity which was monitored by measuring flow birefringence (Actin was extracted in cold water from the acetone-dried powder of rabbit skeletal muscle). Type of test: functional, tissue-based, Oryctolagus cuniculus, Muscle tissue.

In brackets after ≈: the same amount, converted by molar mass. Activity calls are given as the source filed them. The rule behind the calls is not given here.

As a reminder, the IC50 is the concentration needed to halve the response being measured. For `COCC(C(=O)O[C@@H]1C/C=C/C=C/C(=O)O[C@H]([C@@H](C)[C@@H](O)[C@@H](C)CC[C@@H](O)[C@H](C)[C@H](O)[C@H](C)CCO)C/C=C/[C@H](OC)C[C@H](C)C/C=C/[C@@H](OC)CC[C@@H](C)[C@@H](O)[C@@H]1C)N(C)C` (stereo not given in full), the concentration for half-maximal inhibition (IC50) with HeLa [1] was 0.083 µg/mL (≈ 0.0941 µM); in test [4], 190 µM. For the same compound, the results for the Relative potency in the test on HeLa [2] and in the test listed under Oryctolagus cuniculus [3] were 0.58 and 16, respectively.
With `COCC(C(=O)O[C@H]1[C@H](C)[C@H](O)C/C=C/C=C/C(=O)O[C@H]([C@@H](C)[C@@H](O)[C@@H](C)CC[C@@H](OC(=O)C(C)N(C)C)[C@H](C)[C@H](OC(C)=O)[C@H](C)/C=C/N(C)C=O)C/C=C/[C@H](OC)C[C@H](C)C/C=C(\C)[C@@H](OC)CC[C@H]1C)N(C)C` (stereo not given in full) [APLYRONINE B], the IC50 worked out at 0.00311 µg/mL (≈ 0.00289 µM) in the test on HeLa [1] and 33 µM in test [4]. Moreover, the Relative potency is 15 in the test with HeLa [2] and 94 in the test filed under Oryctolagus cuniculus [3].
In test [5], `C[C@H]([C@H](O)[C@H](C)CCO)[C@H](O)CC[C@H](C)[C@H](O)[C@H](C)[C@@H](O)CCO` came in with a 50% inhibitory concentration (IC50) of 7600 µM. In addition, in the test listed under Oryctolagus cuniculus [3], the Relative potency is 0.41.
Turning to `COCC(C(=O)O[C@@H]1C/C=C/C=C/C(=O)O[C@H]([C@@H](C)[C@@H](OC(C)=O)[C@@H](C)CC[C@@H](OC(=O)C(C)N(C)C)[C@H](C)[C@H](OC(C)=O)[C@H](C)/C=C/N(C)C=O)C/C=C/[C@H](OC)C[C@H](C)C/C=C(\C)[C@@H](OC)CC[C@@H](C)[C@@H](OC(C)=O)[C@@H]1C)N(C)C` (stereo not given in full), the IC50 was 0.216 µg/mL (≈ 0.186 µM) in the test with HeLa [1] and 57 µM in test [4]. The results for the Relative potency in the test on HeLa [2] and in the test filed under Oryctolagus cuniculus [3] were 0.22 and 54, respectively.
With `COCC(C(=O)O[C@@H]1C/C=C/C=C/C(=O)O[C@H]([C@@H](C)[C@@H](O)[C@@H](C)CC[C@@H](O)[C@H](C)[C@H](OC(C)=O)[C@H](C)/C=C/N(C)C=O)C/C=C/[C@H](OC)C[C@H](C)C/C=C(\C)[C@@H](OC)CC[C@@H](C)[C@@H](O)[C@@H]1C)N(C)C` (stereo not given in full), the IC50 is 0.00103 µg/mL (≈ 0.00105 µM) in the test on HeLa [1] and 35 µM in test [4]. Moreover, the Relative potency is 47 with HeLa [2] and 86 in the test listed under Oryctolagus cuniculus [3].
On the same counts, the results for `CO[C@H]1CC[C@@H](C)[C@@H](O)[C@H](C)[C@H](O)C/C=C/C=C/C(=O)O[C@H]([C@@H](C)[C@@H](O)[C@@H](C)CC[C@@H](OC(=O)C(C)N(C)C)[C@H](C)[C@H](OC(C)=O)[C@H](C)/C=C/N(C)C=O)C/C=C/[C@H](OC)C[C@H](C)C/C=C/1C` (stereo not given in full) [APLYRONINE C] are 0.0212 µg/mL (≈ 0.0224 µM), 32 µM, 2.3 and 97.
Take `COCC(C(=O)O[C@@H]1C/C=C/C=C/C(=O)OCC/C=C/[C@H](OC)C[C@H](C)C/C=C/[C@@H](OC)CC[C@@H](C)[C@@H](O)[C@@H]1C)N(C)C` (stereo not given in full): the IC50 result in test [6] is listed as “Not Active”. In addition, in the test filed under Oryctolagus cuniculus [7], the Relative potency entry is “inactive”.
Take `COCC(C(=O)O[C@@H]1C/C=C/C=C/C(=O)O[C@H]([C@@H](C)[C@@H](O)[C@@H](C)CC[C@@H](OC(=O)C(C)N(C)C)[C@H](C)[C@H](OC(C)=O)[C@H](C)CCO)C/C=C/[C@H](OC)C[C@H](C)C/C=C(\C)[C@@H](OC)CC[C@@H](C)[C@@H](O)[C@@H]1C)N(C)C` (stereo not given in full): the figures for the half-maximal inhibitory concentration (IC50) (in the test with HeLa [1]; in test [4]) were 0.00172 µg/mL (≈ 0.00166 µM) and 78 µM, respectively. For the same compound, the Relative potency was 28 in the test on HeLa [2] and 40 in the test listed under Oryctolagus cuniculus [3].
In the case of `COCC(C(=O)O[C@@H]1C/C=C/C=C/C(=O)O[C@H]([C@@H](C)[C@@H](O)[C@@H](C)CC[C@@H](O)[C@H](C)[C@H](OC(C)=O)[C@H](C)CCO)C/C=C/[C@H](OC)C[C@H](C)C/C=C/[C@@H](OC)CC[C@@H](C)[C@@H](O)[C@@H]1C)N(C)C` (stereo not given in full), the figures for the IC50 (with HeLa [1]; in test [4]) were 0.037 µg/mL (≈ 0.04 µM) and 36 µM, respectively. Moreover, the Relative potency in the test with HeLa [2] is 1.3; in the test filed under Oryctolagus cuniculus [3] it was 86.
With `COCC(C(=O)O[C@@H]1C/C=C/C=C/C(=O)O[C@H]([C@@H](C)[C@@H](O)[C@@H](C)CC[C@@H](OC(=O)C(C)N(C)C)[C@H](C)[C@H](OC(C)=O)[C@H](C)CCO)C/C=C/[C@H](OC)C[C@H](C)C/C=C/[C@@H](OC)CC[C@@H](C)[C@@H](O)[C@@H]1C)N(C)C` (stereo not given in full), the concentration for half-maximal inhibition (IC50) with HeLa [1] was found to be 0.0026 µg/mL (≈ 0.00254 µM); in test [4], 38 µM. Besides, the Relative potency with HeLa [2] was 18; in the test listed under Oryctolagus cuniculus [3], 82.
Consider `COCC(C(=O)O[C@@H]1C/C=C/C=C/C(=O)O[C@H]([C@@H](C)[C@@H](O)[C@@H](C)COC(=O)C(C)N(C)C)C/C=C/[C@H](OC)C[C@H](C)C/C=C/[C@@H](OC)CC[C@@H](C)[C@@H](O)[C@@H]1C)N(C)C` (stereo not given in full), for which the Relative potency in the test filed under Oryctolagus cuniculus [3] is 1.7. The midpoint of inhibition in test [4], the IC50, lay at 1800 µM.
Turning to `CO[C@@H]1/C=C/C[C@@H](C)C[C@@H](OC)/C=C/C[C@@H]([C@@H](C)[C@@H](O)[C@@H](C)CC[C@@H](OC(=O)CN(C)C)[C@H](C)[C@H](OC(C)=O)[C@H](C)CCO)OC(=O)/C=C/C=C/C[C@@H](OC(=O)CN(C)C)[C@@H](C)[C@H](O)[C@H](C)CC1`, the IC50 in the test on HeLa [1] is > 2 µg/mL; in test [4], 49 µM. Moreover, the Relative potency in the test with HeLa [2] was <0.02; in the test filed under Oryctolagus cuniculus [3], 63.
On to `COCC(C(=O)O[C@@H]1C/C=C/C=C/C(=O)O[C@H]([C@@H](C)[C@@H](O)[C@@H](C)CO)C/C=C/[C@H](OC)C[C@H](C)C/C=C/[C@@H](OC)CC[C@@H](C)[C@@H](O)[C@@H]1C)N(C)C` (stereo not given in full), for which the 50% inhibitory concentration (IC50) with HeLa [1] was > 2 µg/mL; in test [8], 4500 µM. The results for the Relative potency in the test with HeLa [2] and in the test filed under Oryctolagus cuniculus [3] were <0.02 and 0.69, respectively.
For `COCC(C(=O)O[C@@H]1CCCCCC(=O)O[C@H]([C@@H](C)[C@@H](O)[C@@H](C)CC[C@@H](OC(=O)C(C)N(C)C)[C@H](C)[C@H](OC(C)=O)[C@H](C)CCO)C/C=C/[C@H](OC)C[C@H](C)C/C=C(\C)[C@@H](OC)CC[C@@H](C)[C@@H](O)[C@@H]1C)N(C)C` (stereo not given in full), the IC50 in the test on HeLa [1] was found to be 0.057 µg/mL (≈ 0.0547 µM); in test [4], 70 µM. The Relative potency was 0.84 in the test with HeLa [2] and 44 in the test listed under Oryctolagus cuniculus [3].
Compound `COCC(C(=O)O[C@@H]1C/C=C/C=C/C(=O)OCC/C=C/[C@H](OC)C[C@H](C)C/C=C(\C)[C@@H](OC)CC[C@@H](C)[C@@H](O)[C@@H]1C)N(C)C` (stereo not given in full) returned a 50% inhibitory concentration (IC50) in the test with HeLa [1] of 2.1 µg/mL (≈ 3.38 µM). In addition, the Relative potency with HeLa [2] is given as 0.023.
In the case of `COCC(C(=O)O[C@@H]1C/C=C/C=C/C(=O)O[C@H]([C@@H](C)[C@@H](O)[C@@H](C)CC[C@@H](OC(=O)C(C)N(C)C)[C@H](C)[C@H](OC(C)=O)[C@H](C)/C=C/N(C)C=O)C/C=C/[C@H](OC)C[C@H](C)C/C=C(\C)[C@@H](OC)CC[C@@H](C)[C@@H](O)[C@@H]1C)N(C)C` (stereo not given in full) [APLYRONINE A], the concentration for half-maximal inhibition (IC50) in the test with HeLa [1] was 0.00048 µg/mL (≈ 0.000446 µM); in test [4] it was 31 µM. Also, the Relative potency with HeLa [2] and in the test filed under Oryctolagus cuniculus [3] was 100 throughout.
Take `CO[C@H]1CC[C@@H](C)[C@@H](O)[C@H](C)[C@H](O)C/C=C/C=C/C(=O)O[C@H]([C@@H](C)[C@@H](O)[C@@H](C)CC[C@@H](O)[C@H](C)[C@H](OC(C)=O)[C@H](C)/C=C/N(C)C=O)C/C=C/[C@H](OC)C[C@H](C)C/C=C/1C`: the half-maximal inhibitory concentration (IC50) with HeLa [1] was 0.113 µg/mL (≈ 0.133 µM); in test [4], 35 µM. For the same compound, the values for the Relative potency in the test with HeLa [2] and in the test listed under Oryctolagus cuniculus [3] were 0.42 and 86, respectively.
